Assay results from the supplement of paper PMC10307832.

Tests used:
Test in all cases: relative viability (nuclei count vs DMSO), 5 days (fraction); higher = more cells survive
Veliparib + AZD7762 = compound: C[C@]1(c2nc3c(C(N)=O)cccc3[nH]2)CCCN1 [Veliparib] + NC(=O)Nc1cc(-c2cccc(F)c2)sc1C(=O)N[C@H]1CCCNC1 [AZD7762] (partner 0.2 µM)
In short: (§1)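 Each reported value is a median over duplicate plates. It expresses relative viability: treated-well nuclei count divided by vehicle-well nuclei count. Lung cancer cell lines in 1536-well plates were dosed by pin tool a day after seeding, alone with one drug or with a fixed anchor-drug dose plus five library-drug doses (not always all listed) in √10 steps, and nuclei were counted after 5 days.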

[1] = compound: COC1=CC=C(C=C1)CN2C=CC3=C2C=C(C=C3)C(=O)NO + CS(=O)(=O)N1CCN(Cc2cc3nc(-c4cccc5[nH]ncc45)nc(N4CCOCC4)c3s2)CC1 [Pictilisib] (partner 1 µM)
In short: as §1

[2] = compound: COC1=CC=C(C=C1)CN2C=CC3=C2C=C(C=C3)C(=O)NO + Nc1ncn([C@H]2C[C@H](O)[C@@H](CO)O2)c(=O)n1 [Decitabine] (partner 2 µM)
In short: as §1

Veliparib + Trametinib = compound: C[C@]1(c2nc3c(C(N)=O)cccc3[nH]2)CCCN1 [Veliparib] + CC(=O)Nc1cccc(-n2c(=O)n(C3CC3)c(=O)c3c(Nc4ccc(I)cc4F)n(C)c(=O)c(C)c32)c1 [Trametinib] (partner 0.02 µM)
In short: as §1

Cell Line	relative viability (Veliparib + AZD7762; first compound 0.02 µM)	relative viability (Veliparib + AZD7762; first compound 0.06325 µM)	relative viability (Veliparib + AZD7762; first compound 0.2 µM)	relative viability (Veliparib + AZD7762; first compound 0.6325 µM)	relative viability (Veliparib + AZD7762; first compound 2 µM)	relative viability ([1]; first compound 0.08 µM)	relative viability ([1]; first compound 0.253 µM)	relative viability ([1]; first compound 0.8 µM)	relative viability ([1]; first compound 2.53 µM)	relative viability ([1]; first compound 8 µM)	relative viability ([2]; first compound 0.253 µM)	relative viability ([2]; first compound 0.8 µM)	relative viability ([2]; first compound 2.53 µM)	relative viability ([2]; first compound 8 µM)	relative viability (Veliparib + Trametinib; first compound 0.02 µM)	relative viability (Veliparib + Trametinib; first compound 0.06325 µM)	relative viability (Veliparib + Trametinib; first compound 0.2 µM)	relative viability (Veliparib + Trametinib; first compound 0.6325 µM)	relative viability (Veliparib + Trametinib; first compound 2 µM)	relative viability ([2]; first compound 0.08 µM)
LOU-NH91	0.768	0.705	0.75	0.723	0.821	0.45	0.53	0.522	0.528	0.497	0.828	0.831	0.851	0.824	0.814	0.789	0.793	0.725	0.811	
LU99A	0.403	0.385	0.322	0.283	0.317		0.338	0.355	0.295	0.283	0.959	0.952	0.843	0.911	0.552	0.536	0.566	0.537	0.571	
LXF-289	1.06	1.06	1.12	1.09	1.14	0.309	0.779	0.754	0.799	0.723	0.413	0.391	0.386	0.329	0.671	0.691	0.668	0.681	0.657	
NCI-H23	0.35	0.216	0.201	0.277	0.28	0.275	0.538	0.49	0.559	0.349	0.325	0.377	0.301	0.296	0.448	0.413	0.509	0.4	0.469	0.291
NCI-H322M		0.629	0.573	0.744	0.611		0.542	0.544	0.501	0.45		0.716	0.66	0.69		0.52	0.465	0.5	0.494	
NCI-H358		0.487	0.671	0.552	0.676		0.429	0.422	0.337	0.296	0.221	0.292	0.197	0.179	0.0965	0.12	0.195	0.115	0.152	
NCI-H441	1.12	1.09	1.14	1.01	1.04	0.344	0.613	0.548	0.572	0.438	0.239	0.258	0.237	0.276	0.489	0.497	0.488	0.477	0.568	0.258
NCI-H460	0.635	0.469	0.602	0.583	0.516	0.0712	0.248	0.405	0.377	0.348	0.461	0.468	0.432	0.43	0.185	0.0956	0.1	0.109	0.202	0.457
NCI-H596	1.34	1.22	1.17	1.13	0.952	0.349	0.408	0.411	0.468	0.409	1.78	1.15	0.922	1	0.83	0.666	0.77	0.806	0.793	1.04
NCI-H647	0.53	0.415	0.429	0.552	0.394		0.42	0.523	0.373	0.308	0.401	0.434	0.426	0.405	0.502	0.451	0.483	0.478	0.481	0.509
NCI-H650	1.07	0.798	1.14	0.96	0.944	0.901	0.895	0.856	0.861	0.829	0.306	0.359	0.3	0.296	0.999	0.999	0.988	0.938	0.971	0.298
NCI-H727	0.627	0.495	0.784	0.681	0.603	0.344	0.299	0.553	0.306	0.488	0.866	0.792	0.705	0.909	0.379	0.39	0.42	0.428	0.416	0.813
NCI-H838	0.998	0.914	0.963	0.94	0.937		0.464	0.512	0.413	0.399	0.455	0.476	0.456	0.505	0.566	0.501	0.54	0.524	0.521	0.441
NCI-H1355	0.733	0.685	0.726	0.684	0.739	0.156	0.501	0.489	0.498	0.372	0.357	0.347	0.403	0.311	0.368	0.282	0.438	0.422	0.447	0.326
NCI-H1395	0.454	0.359	0.411	0.405	0.405	0.683	0.653	0.58	0.583	0.505	0.701	0.758	0.842	0.618	0.995	0.96	0.924	0.899	0.857	
NCI-H1437	0.996	1.07	1.17	1.13	1.09	0.47	0.449	0.473	0.481	0.412	0.608	0.547	0.576	0.606	0.502	0.527	0.514	0.502	0.497	0.558
NCI-H1651	0.455	0.424	0.419	0.46	0.412	0.572	0.427	0.606	0.65	0.452	0.52	0.616	0.566	0.579	0.844	0.836	0.785	0.77	0.8	0.584

Cell Line	relative viability (Veliparib + AZD7762; first compound 0.02 µM)	relative viability (Veliparib + AZD7762; first compound 0.06325 µM)	relative viability (Veliparib + AZD7762; first compound 0.2 µM)	relative viability (Veliparib + AZD7762; first compound 0.6325 µM)	relative viability (Veliparib + AZD7762; first compound 2 µM)	relative viability ([1]; first compound 0.08 µM)	relative viability ([1]; first compound 0.253 µM)	relative viability ([1]; first compound 0.8 µM)	relative viability ([1]; first compound 2.53 µM)	relative viability ([1]; first compound 8 µM)	relative viability ([2]; first compound 0.253 µM)	relative viability ([2]; first compound 0.8 µM)	relative viability ([2]; first compound 2.53 µM)	relative viability ([2]; first compound 8 µM)	relative viability (Veliparib + Trametinib; first compound 0.02 µM)	relative viability (Veliparib + Trametinib; first compound 0.06325 µM)	relative viability (Veliparib + Trametinib; first compound 0.2 µM)	relative viability (Veliparib + Trametinib; first compound 0.6325 µM)	relative viability (Veliparib + Trametinib; first compound 2 µM)	relative viability ([2]; first compound 0.08 µM)
NCI-H1666	0.872	0.823	0.799	0.918	0.881	0.523	0.49	0.47	0.525	0.525	0.797	0.81	0.659	0.723	0.84	0.861	0.782	0.754	0.926	0.639
NCI-H1734		0.529	0.529	0.536	0.642		0.487	0.437	0.384	0.416	0.507	0.527	0.534	0.48		0.613	0.792	0.631	0.72	
NCI-H1755	0.479	0.543	0.5	0.443	0.444	0.267	0.458	0.51	0.383	0.363	0.737	0.64	0.743	0.683	0.821	0.763	0.812	0.741	0.768	0.632
NCI-H1792	0.479	0.485	0.548	0.569	0.533	0.301	0.314	0.297	0.326	0.209	0.619	0.479	0.469	0.458	0.499	0.411	0.41	0.438	0.401	0.523
NCI-H1793	0.532	0.518	0.592	0.56	0.581	0.17	0.239	0.395	0.267	0.335	0.678	0.592	0.662	0.286	0.476	0.417	0.474	0.361	0.465	
NCI-H1915	0.661	0.643	0.517	0.556	0.519	0.62	0.997	1.08	0.973	0.735	0.284	0.259	0.275	0.262	0.309	0.289	0.302	0.292	0.291	0.239
NCI-H1944	0.521	0.592	0.504	0.511	0.529		0.37	0.317	0.357	0.322	0.431	0.384	0.456	0.406	0.432	0.398	0.418	0.418	0.405	
NCI-H1975	0.765	0.639	0.737	0.736	0.61	0.304	0.297	0.281	0.299	0.252	0.364	0.443	0.456	0.388	0.339	0.335	0.329	0.344	0.331	0.349
NCI-H1993		0.875	0.934	0.664	0.607	0.717	0.0552	0.772	0.837	0.756	0.599	0.526	0.675	0.613		0.63	0.519	0.425	0.552	0.602
NCI-H2085	0.813	0.984	1.05	1.03	0.911	0.44	0.491	0.53	0.492	0.426	0.571	0.639	0.593	0.549	0.553	0.494	0.615	0.532	0.556	0.561
NCI-H2087	1.29	1.23	1.5	1.3	1.19	0.497	0.936	0.776	0.976	0.674	0.295	0.288	0.319	0.192	0.198	0.205	0.215	0.168	0.154	0.25
NCI-H2126	0.957	0.975	1.03	1.07	0.834	0.479	0.496	0.53	0.558	0.443	0.535	0.578	0.585	0.621	0.571	0.512	0.574	0.526	0.531	0.574
NCI-H2170	0.849	0.904	0.786	0.829	0.734	0.271	0.393	0.347	0.27	0.279	0.514	0.459	0.455	0.43	0.872	1.02	1.01	0.901	0.935	0.494
NCI-H2347	0.77	0.787	0.788	0.769	0.624	0.494	0.652	0.596		0.462	0.691	0.681	0.61	0.577	0.294	0.254	0.26	0.364	0.288	0.612
NCI-H2405	0.772		0.81	0.734	0.738	0.316	0.378	0.532	0.405	0.331		0.791	0.752	0.66	0.627		0.64	0.578	0.745	0.516
NCI-H3122	0.937	1.01	0.986	0.971	1.01	0.571	0.629	0.652	0.577	0.518	0.479	0.484	0.468	0.386	0.181	0.186	0.214	0.208	0.233	0.467
